Columns and labels:
[1] = biological target: STE20-like serine/threonine-protein kinase (Homo sapiens) (UniProt Q9H2G2); experiment: activity of SLK(h) at 1.0 µM in the Eurofins Kinase panel; conditions: Compound concentration 1.0 uM
[2] = biological target: Myosin light chain kinase 2, skeletal/cardiac muscle (Homo sapiens) (UniProt Q9H1R3); experiment: activity of MYLK2(h) at 1.0 µM in the Eurofins Kinase panel; conditions: Compound concentration 1.0 uM
[3] = biological target: Serine/threonine-protein kinase TAO2 (Homo sapiens) (UniProt Q9UL54); experiment: activity of TAO2(h) at 1.0 µM in the Eurofins Kinase panel; conditions: Compound concentration 1.0 uM
[4] = biological target: RAC-gamma serine/threonine-protein kinase (Homo sapiens) (UniProt Q9Y243); experiment: activity of PKBgamma(h) at 1.0 µM in the Eurofins Kinase panel; conditions: Compound concentration 1.0 uM
[5] = biological target: Serine/threonine-protein kinase D1 (Homo sapiens) (UniProt Q15139); experiment: activity of PKCmu(h) at 1.0 µM in the Eurofins Kinase panel; conditions: Compound concentration 1.0 uM
[6] = biological target: Calcium/calmodulin-dependent protein kinase type II subunit beta (Homo sapiens) (UniProt Q13554); experiment: activity of CaMKIIbeta(h) at 1.0 µM in the Eurofins Kinase panel; conditions: Compound concentration 1.0 uM
[7] = biological target: G protein-coupled receptor kinase 6 (Homo sapiens) (UniProt P43250); experiment: activity of GRK6(h) at 1.0 µM in the Eurofins Kinase panel; conditions: Compound concentration 1.0 uM
[8] = biological target: Serine/threonine-protein kinase Nek4 (Homo sapiens) (UniProt P51957); experiment: activity of NEK4(h) at 1.0 µM in the Eurofins Kinase panel; conditions: Compound concentration 1.0 uM
[9] = biological target: BDNF/NT-3 growth factors receptor (Homo sapiens) (UniProt Q16620); experiment: activity of TrkB(h) at 1.0 µM in the Eurofins Kinase panel; conditions: Compound concentration 1.0 uM
[10] = biological target: PI3K p110 beta/p85 alpha (Homo sapiens) (UniProt P27986+P42338); experiment: activity of PI3 Kinase (p110beta/p85alpha)(h) at 1.0 µM in the Eurofins Kinase panel; type: protein-complex assay; conditions: Compound concentration 1.0 uM
Chain of PI3K p110 beta/p85 alpha (Homo sapiens) (P27986 2-724 limits assumed): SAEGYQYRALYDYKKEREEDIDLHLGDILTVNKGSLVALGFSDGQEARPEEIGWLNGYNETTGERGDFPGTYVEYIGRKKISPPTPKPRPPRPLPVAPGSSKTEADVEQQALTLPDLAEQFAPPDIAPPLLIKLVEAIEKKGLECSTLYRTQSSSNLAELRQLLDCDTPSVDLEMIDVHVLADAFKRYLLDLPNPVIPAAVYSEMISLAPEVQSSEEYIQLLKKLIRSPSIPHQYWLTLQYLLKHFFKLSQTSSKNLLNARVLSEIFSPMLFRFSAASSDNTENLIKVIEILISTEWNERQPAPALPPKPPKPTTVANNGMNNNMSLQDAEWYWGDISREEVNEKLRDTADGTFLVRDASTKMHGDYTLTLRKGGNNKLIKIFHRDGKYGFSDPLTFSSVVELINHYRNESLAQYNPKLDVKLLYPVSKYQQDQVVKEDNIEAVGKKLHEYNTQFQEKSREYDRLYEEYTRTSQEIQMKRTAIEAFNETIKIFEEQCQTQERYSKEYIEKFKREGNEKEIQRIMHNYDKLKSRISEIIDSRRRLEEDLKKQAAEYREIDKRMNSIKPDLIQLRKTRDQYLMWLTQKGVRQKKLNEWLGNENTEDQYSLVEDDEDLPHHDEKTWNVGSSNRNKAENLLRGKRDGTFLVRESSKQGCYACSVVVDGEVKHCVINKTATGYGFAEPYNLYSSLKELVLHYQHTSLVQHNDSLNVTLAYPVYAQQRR
Chain of PI3K p110 beta/p85 alpha (Homo sapiens) (P42338 whole entry partner): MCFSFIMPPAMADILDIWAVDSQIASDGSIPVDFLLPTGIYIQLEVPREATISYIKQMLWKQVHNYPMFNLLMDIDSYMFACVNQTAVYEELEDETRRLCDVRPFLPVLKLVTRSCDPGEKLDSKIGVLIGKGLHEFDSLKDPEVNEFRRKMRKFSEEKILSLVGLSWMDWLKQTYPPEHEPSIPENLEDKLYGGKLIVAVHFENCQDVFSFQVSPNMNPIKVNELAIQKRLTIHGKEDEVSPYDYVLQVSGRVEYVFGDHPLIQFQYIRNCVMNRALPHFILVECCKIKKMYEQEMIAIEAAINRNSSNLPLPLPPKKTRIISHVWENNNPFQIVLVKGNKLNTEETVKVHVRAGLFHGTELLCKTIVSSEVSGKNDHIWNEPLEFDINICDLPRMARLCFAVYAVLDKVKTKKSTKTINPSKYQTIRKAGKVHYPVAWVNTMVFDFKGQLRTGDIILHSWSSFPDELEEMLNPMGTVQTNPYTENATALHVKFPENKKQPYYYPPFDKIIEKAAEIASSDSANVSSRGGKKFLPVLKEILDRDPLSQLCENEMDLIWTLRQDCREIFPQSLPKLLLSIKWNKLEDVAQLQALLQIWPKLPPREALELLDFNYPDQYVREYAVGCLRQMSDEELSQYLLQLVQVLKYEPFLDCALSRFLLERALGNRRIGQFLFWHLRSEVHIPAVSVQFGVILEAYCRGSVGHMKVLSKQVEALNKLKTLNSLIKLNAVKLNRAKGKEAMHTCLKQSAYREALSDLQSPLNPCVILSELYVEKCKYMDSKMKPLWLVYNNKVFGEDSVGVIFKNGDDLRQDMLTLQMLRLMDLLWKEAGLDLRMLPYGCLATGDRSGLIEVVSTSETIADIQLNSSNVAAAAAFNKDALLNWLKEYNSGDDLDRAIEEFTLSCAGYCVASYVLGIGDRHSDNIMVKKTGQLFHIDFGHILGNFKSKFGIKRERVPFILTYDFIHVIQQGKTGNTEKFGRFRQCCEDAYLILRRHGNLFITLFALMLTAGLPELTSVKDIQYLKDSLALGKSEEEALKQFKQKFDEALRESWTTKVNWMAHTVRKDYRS

[11] = biological target: Casein kinase II subunit alpha (Homo sapiens) (UniProt P68400); experiment: activity of CK2alpha1(h) at 1.0 µM in the Eurofins Kinase panel; conditions: Compound concentration 1.0 uM
[12] = biological target: Fibroblast growth factor receptor 2 (Homo sapiens) (UniProt P21802); experiment: activity of FGFR2(h) at 1.0 µM in the Eurofins Kinase panel; conditions: Compound concentration 1.0 uM
[13] = biological target: Tyrosine-protein kinase Fer (Homo sapiens) (UniProt P16591); experiment: activity of Fer(h) at 1.0 µM in the Eurofins Kinase panel; conditions: Compound concentration 1.0 uM
Chain of Tyrosine-protein kinase Fer (Homo sapiens) (P16591 whole entry, looked up): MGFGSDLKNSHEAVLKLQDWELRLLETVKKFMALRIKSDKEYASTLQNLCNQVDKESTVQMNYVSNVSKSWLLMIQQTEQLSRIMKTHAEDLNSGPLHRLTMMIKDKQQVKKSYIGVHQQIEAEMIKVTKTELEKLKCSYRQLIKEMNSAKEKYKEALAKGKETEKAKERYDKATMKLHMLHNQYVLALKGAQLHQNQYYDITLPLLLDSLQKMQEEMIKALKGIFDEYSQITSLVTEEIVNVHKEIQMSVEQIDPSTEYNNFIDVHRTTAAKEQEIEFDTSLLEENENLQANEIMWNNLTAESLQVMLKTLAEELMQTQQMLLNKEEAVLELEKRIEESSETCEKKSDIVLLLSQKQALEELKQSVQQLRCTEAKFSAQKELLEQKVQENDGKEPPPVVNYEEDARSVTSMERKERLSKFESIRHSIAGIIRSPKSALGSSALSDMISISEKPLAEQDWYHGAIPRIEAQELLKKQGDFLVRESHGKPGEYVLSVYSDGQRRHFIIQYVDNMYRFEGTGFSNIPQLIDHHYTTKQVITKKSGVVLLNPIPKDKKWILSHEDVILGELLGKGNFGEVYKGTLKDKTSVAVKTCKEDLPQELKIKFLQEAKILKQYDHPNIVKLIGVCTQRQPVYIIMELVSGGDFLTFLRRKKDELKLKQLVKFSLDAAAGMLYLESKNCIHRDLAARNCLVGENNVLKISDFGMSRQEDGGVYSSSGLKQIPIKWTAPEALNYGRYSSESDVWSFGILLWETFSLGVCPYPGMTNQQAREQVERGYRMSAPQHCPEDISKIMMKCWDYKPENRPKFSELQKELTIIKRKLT

[14] = biological target: CDK12/Cyclin K (Homo sapiens) (UniProt O75909+Q9NYV4); experiment: activity of CDK12/cyclinK(h) at 1.0 µM in the Eurofins Kinase panel; type: protein-complex assay; conditions: Compound concentration 1.0 uM
[15] = biological target: Mitogen-activated protein kinase 13 (Homo sapiens) (UniProt O15264); experiment: activity of SAPK4(h) at 1.0 µM in the Eurofins Kinase panel; conditions: Compound concentration 1.0 uM
[16] = biological target: Cyclin-dependent kinase 5/CDK5 activator 1 (Homo sapiens) (UniProt Q00535+Q15078); experiment: activity of CDK5/p35(h) at 1.0 µM in the Eurofins Kinase panel; type: protein-complex assay; conditions: Compound concentration 1.0 uM
Aurora kinase B = Aurora kinase B (Homo sapiens, UniProt Q96GD4); experiment: Promega NanoBRET (AURKB)
Chain of Aurora kinase B (Q96GD4 whole entry): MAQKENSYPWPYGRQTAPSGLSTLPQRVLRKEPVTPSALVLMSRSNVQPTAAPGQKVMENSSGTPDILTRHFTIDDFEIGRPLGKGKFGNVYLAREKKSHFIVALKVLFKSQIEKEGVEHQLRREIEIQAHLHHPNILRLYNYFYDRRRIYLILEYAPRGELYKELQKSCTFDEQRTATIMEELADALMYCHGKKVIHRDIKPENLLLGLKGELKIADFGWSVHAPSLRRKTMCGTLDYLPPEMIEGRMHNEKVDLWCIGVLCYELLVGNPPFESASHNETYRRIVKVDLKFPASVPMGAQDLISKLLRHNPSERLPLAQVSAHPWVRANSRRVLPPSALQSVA

[17] = biological target: Serine/threonine-protein kinase ULK1 (Homo sapiens) (UniProt O75385); experiment: activity of ULK1(h) at 1.0 µM in the Eurofins Kinase panel; conditions: Compound concentration 1.0 uM
[18] = biological target: Tyrosine-protein kinase CSK (Homo sapiens) (UniProt P41240); experiment: activity of CSK(h) at 1.0 µM in the Eurofins Kinase panel; conditions: Compound concentration 1.0 uM
[19] = biological target: Focal adhesion kinase 1 (Homo sapiens) (UniProt Q05397); experiment: activity of FAK(h) at 1.0 µM in the Eurofins Kinase panel; conditions: Compound concentration 1.0 uM
[20] = biological target: Tyrosine-protein kinase Mer (Homo sapiens) (UniProt Q12866); experiment: activity of Mer(h) at 1.0 µM in the Eurofins Kinase panel; conditions: Compound concentration 1.0 uM
Chain of Tyrosine-protein kinase Mer (Homo sapiens) (Q12866 whole entry): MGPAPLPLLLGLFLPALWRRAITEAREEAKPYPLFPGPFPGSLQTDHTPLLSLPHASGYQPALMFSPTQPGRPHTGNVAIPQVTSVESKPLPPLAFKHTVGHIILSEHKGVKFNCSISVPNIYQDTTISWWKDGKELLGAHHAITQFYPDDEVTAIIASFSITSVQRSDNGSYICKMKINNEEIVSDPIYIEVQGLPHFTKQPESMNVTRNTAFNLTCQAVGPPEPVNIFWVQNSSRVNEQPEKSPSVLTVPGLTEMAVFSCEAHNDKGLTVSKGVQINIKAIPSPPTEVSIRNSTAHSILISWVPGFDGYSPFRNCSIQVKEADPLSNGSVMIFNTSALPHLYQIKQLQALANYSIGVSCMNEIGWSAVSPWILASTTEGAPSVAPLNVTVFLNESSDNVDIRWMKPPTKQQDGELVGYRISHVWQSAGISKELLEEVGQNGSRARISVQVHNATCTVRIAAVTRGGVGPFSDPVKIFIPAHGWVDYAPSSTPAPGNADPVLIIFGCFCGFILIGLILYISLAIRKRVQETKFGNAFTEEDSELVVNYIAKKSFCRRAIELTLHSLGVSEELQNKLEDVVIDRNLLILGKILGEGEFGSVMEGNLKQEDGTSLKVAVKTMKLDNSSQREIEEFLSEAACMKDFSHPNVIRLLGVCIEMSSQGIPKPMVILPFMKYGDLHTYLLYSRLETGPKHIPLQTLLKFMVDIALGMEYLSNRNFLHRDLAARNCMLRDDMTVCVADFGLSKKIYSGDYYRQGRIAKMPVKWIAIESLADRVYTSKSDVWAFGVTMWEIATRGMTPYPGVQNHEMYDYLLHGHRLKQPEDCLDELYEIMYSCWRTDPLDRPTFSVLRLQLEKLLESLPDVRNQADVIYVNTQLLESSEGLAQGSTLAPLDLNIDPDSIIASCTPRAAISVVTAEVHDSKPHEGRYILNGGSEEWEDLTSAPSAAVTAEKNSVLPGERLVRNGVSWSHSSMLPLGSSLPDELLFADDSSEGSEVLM

[21] = biological target: MAP kinase-activated protein kinase 2 (Homo sapiens) (UniProt P49137); experiment: activity of MAPKAP-K2(h) at 1.0 µM in the Eurofins Kinase panel; conditions: Compound concentration 1.0 uM
[22] = biological target: Ephrin type-B receptor 2 (Homo sapiens) (UniProt P29323); experiment: activity of EphB2(h) at 1.0 µM in the Eurofins Kinase panel; conditions: Compound concentration 1.0 uM
[23] = biological target: Serine/threonine-protein kinase Sgk2 (Homo sapiens) (UniProt Q9HBY8); experiment: activity of SGK2(h) at 1.0 µM in the Eurofins Kinase panel; conditions: Compound concentration 1.0 uM
Chain of Serine/threonine-protein kinase Sgk2 (Homo sapiens) (Q9HBY8 whole entry): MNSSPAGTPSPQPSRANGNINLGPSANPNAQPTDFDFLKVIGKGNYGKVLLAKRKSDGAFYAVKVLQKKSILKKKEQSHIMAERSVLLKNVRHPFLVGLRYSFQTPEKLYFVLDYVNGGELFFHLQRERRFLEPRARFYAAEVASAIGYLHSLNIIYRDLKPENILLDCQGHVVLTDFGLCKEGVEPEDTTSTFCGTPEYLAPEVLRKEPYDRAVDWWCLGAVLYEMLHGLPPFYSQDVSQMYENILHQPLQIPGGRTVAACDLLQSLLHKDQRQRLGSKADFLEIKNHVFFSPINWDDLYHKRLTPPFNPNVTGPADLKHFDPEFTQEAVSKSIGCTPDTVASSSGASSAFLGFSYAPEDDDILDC

[24] = biological target: Serine/threonine-protein kinase WNK2 (Homo sapiens) (UniProt Q9Y3S1); experiment: activity of WNK2(h) at 1.0 µM in the Eurofins Kinase panel; conditions: Compound concentration 1.0 uM
[25] = biological target: Rhodopsin kinase GRK1 (Homo sapiens) (UniProt Q15835); experiment: activity of GRK1(h) at 1.0 µM in the Eurofins Kinase panel; conditions: Compound concentration 1.0 uM
[26] = biological target: Epidermal growth factor receptor (Homo sapiens) (UniProt P00533); experiment: activity of EGFR(h) at 1.0 µM in the Eurofins Kinase panel; conditions: Compound concentration 1.0 uM

Chain of Myosin light chain kinase 2, skeletal/cardiac muscle (Homo sapiens) (Q9H1R3 whole entry): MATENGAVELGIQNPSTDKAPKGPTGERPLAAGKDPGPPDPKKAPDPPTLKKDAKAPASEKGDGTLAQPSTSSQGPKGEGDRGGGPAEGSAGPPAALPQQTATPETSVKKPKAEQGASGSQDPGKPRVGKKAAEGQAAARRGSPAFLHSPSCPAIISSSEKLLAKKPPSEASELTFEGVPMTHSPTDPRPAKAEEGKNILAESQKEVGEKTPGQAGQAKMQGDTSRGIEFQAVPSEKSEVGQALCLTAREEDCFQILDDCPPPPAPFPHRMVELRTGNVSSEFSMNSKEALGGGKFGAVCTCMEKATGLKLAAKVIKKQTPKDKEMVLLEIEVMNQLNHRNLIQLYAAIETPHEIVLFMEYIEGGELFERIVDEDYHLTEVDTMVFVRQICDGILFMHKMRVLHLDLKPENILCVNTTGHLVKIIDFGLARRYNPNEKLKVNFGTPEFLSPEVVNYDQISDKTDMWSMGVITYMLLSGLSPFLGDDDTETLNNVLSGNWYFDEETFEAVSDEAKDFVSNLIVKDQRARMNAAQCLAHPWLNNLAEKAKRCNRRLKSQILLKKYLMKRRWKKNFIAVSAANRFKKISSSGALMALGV

Cc1cc2c(-c3ccc(NC(=O)[C@H](N)CC(C)(C)C)cc3C)ccnc2[nH]1
activity [1]: 109%
activity [2]: 76%
activity [3]: 90%
activity [4]: 101%
activity [5]: 109%
activity [6]: 93%
activity [7]: 95%
activity [8]: 90%
activity [9]: 84%
activity [10]: 102%
activity [11]: 112%
activity [12]: 89%
activity [13]: 103%
activity [14]: 89%
activity [15]: 94%
activity [16]: 79%
IC50 (Aurora kinase B): > 10 µM (not active)
activity [17]: 95%
activity [18]: 92%
activity [19]: 96%
activity [20]: 105%
activity [21]: 72%
activity [22]: 96%
activity [23]: 82%
activity [24]: 94%
activity [25]: 86%
activity [26]: 107%

— ChEMBL document CHEMBL5723584 (2023)
